Results: publication PMC10762035, “Molecular basis of human trace amine-associated receptor 1 activation” (Nature Communications, 2024)
Positions count from the first letter of the chain named. Values joined by “and” are separate entries in the source; they are usually repeats but may differ in a detail not shown here. Equal entries are not always repeated. Where two headings read alike, the source gives them in different places.

Legend:
Format in all cases: cell-based
[1] = target: T1, hTA1 C178S (Homo sapiens, UniProt Q96RJ0, C178S); experiment: GloSensor cAMP accumulation assay, C178S mutant; conditions: for Normalized Luminescence Counts: C178S (N=2), log[Agonist]
T1 construct: expressed in transfected cells; host or cells: HEK293T
T1 sequence (Q96RJ0 1-339 C178S): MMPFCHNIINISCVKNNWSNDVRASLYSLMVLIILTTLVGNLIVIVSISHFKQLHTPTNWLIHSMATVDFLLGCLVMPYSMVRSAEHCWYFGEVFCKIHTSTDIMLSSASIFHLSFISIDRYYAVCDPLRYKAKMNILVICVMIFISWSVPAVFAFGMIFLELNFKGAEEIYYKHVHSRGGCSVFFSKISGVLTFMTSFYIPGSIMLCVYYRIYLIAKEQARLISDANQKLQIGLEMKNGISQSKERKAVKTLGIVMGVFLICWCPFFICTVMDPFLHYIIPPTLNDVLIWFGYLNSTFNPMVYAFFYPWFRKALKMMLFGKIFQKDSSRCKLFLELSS

[2] = target: T2, hTA1 C88/178S (Homo sapiens, UniProt Q96RJ0, C178S/C88S); experiment: GloSensor cAMP accumulation assay, C88S/C178S double mutant
T2 construct: expressed in transfected cells; host or cells: HEK293T
T2 sequence (Q96RJ0 1-339 C88S/C178S): T1 sequence (Q96RJ0 1-339 C178S) with C88S

[3] = target: T3, hTA1 R83H (Homo sapiens, UniProt Q96RJ0, R83H); experiment: GloSensor cAMP accumulation assay, R83H mutant; conditions: R83H;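 note: cells transiently co-expressing hTA1 and a cAMP GloSensor, luminescence read 30 min after agonist addition at room temperature, concentration–response fitted by non-linear regression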
T3 construct: expressed in transfected cells; host or cells: HEK293T
T3 sequence (Q96RJ0 1-339 R83H): T1 sequence (Q96RJ0 1-339 C178S) with R83H, S178C

[4] = target: T4, hTA1 T271N (Homo sapiens, UniProt Q96RJ0, T271N); experiment: GloSensor cAMP accumulation assay, T271N mutant
T4 construct: expressed in transfected cells; host or cells: HEK293T
T4 sequence (Q96RJ0 1-339 T271N): T1 sequence (Q96RJ0 1-339 C178S) with S178C, T271N

[5] = target: T5, hTA1 (Homo sapiens, UniProt Q96RJ0); experiment: Screen of 89 aminergic compounds at 10 µM, cAMP accumulation in HEK293T cells; conditions: 10 µM of compound; HEK293T; threshold log2-fold change of 2;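 note: HEK293T cells co-transfected with hTA1 and GloSensor cAMP reporter, cAMP accumulation detected by luminescence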
T5 construct: expressed in transfected cells; host or cells: HEK293T
T5 sequence (Q96RJ0 1-339): T1 sequence (Q96RJ0 1-339 C178S) with S178C

ΔpEC50 values (each mutant value - WT average), Mean ([1]; C178S, Asenapine): -0.5777 and -0.5455
Emax values, Mean ([1]; C178S, Asenapine, per experiment, 3 replicates): 87.2953 and 116.77
EC50 ([1]; C178S, Asenapine, per experiment, 3 replicates, read-out: pEC50 values Mean (converted)): 0.327 µM and 0.304 µM
EC50 ([1]; C178S, n=2, read-out: EC50): 0.315 µM
Emax ([1]; C178S, n=2, read-out: Span ± SEM (Emax normalized to β-PEA)): 102%
Emax ([1]; C178S, relative to β-PEA, read-out: Emax): 102%
EC50 ([2]; C88/178S, n=2, read-out: EC50): 0.205 µM
Emax ([2]; read-out: Span ± SEM (Emax normalized to β-PEA)): 86.3 ± 8.4%
ΔpEC50 values (each mutant value - WT average), Mean ([3]; Asenapine): -1.278 and -1.426
Emax values, Mean ([3]; Asenapine, per experiment, 3 replicates): 22.9611 and 11.3307
EC50 ([3]; Asenapine, per experiment, 3 replicates, read-out: pEC50 values Mean (converted)): 1.64 µM and 2.31 µM
EC50 ([3]; n=2, read-out: EC50): 1.95 µM
Emax ([3]; n=2, read-out: Span ± SEM (Emax normalized to β-PEA)): 17.1 ± 5.82%
Emax values of Asenapine ([4]; T271N, Mean of one experiment): 142.994 and 100.859
EC50 ([4]; T271N, Mean of one experiment, read-out: pEC50 values of Asenapine (converted)): 0.496 µM and 0.463 µM
EC50 ([4]; T271N, n=2, read-out: EC50): 0.479 µM
Emax ([4]; T271N, n=2, read-out: Span ± SEM (Emax normalized to β-PEA)): 122%
Emax ([4]; T271N, relative to β-PEA, read-out: Emax): 122%
ΔEmax values (each mutant value - WT average), T271N, Mean ([4]; hTA1 T271N mutant vs WT average, Figure 6B, each line is one experiment (3 replicates)): 54.2867 and 12.1519
increase of signal over DMSO-treated controls (hTA1 activation) [5]: ≥ 4 fold
Structure (SMILES): CN1CC2c3ccccc3Oc3ccc(Cl)cc3C2C1 (stereo not drawn) [asenapine]
Normalized Luminescence Counts ([1]; Asenapine, M -5): 75.4368 and 92.2127 and 77.6331 and 138.575 and 114.073 and 74.6126
Normalized Luminescence Counts ([1]; Asenapine, M -5.522): 79.5957 and 78.8948 and 73.2872 and 121.163 and 122.988 and 72.6381
Normalized Luminescence Counts ([1]; Asenapine, M -6): 71.3246 and 64.9226 and 70.9975 and 119.907 and 121.163 and 96.5417
Normalized Luminescence Counts ([1]; Asenapine, M -6.522): 41.1373 and 42.2588 and 39.3616 and 54.3289 and 32.5494 and 43.2597
